Earlier results in US7223414B1, “Silica-calcium phosphate bioactive composite for improved synthetic graft resorbability and tissue regeneration” (priority 2002, dated 2007).
Counter-ions that a name gives are not always drawn.

Tested on: Staphylococcus aureus

For `CN[C@H](CC(C)C)C(=O)N[C@H]1C(=O)N[C@@H](CC(N)=O)C(=O)N[C@H]2C(=O)N[C@H]3C(=O)N[C@H](C(=O)N[C@H](C(=O)O)c4cc(O)cc(O)c4-c4cc3ccc4O)[C@H](O)c3ccc(c(Cl)c3)Oc3cc2cc(c3O[C@@H]2O[C@H](CO)[C@@H](O)[C@H](O)[C@H]2O[C@H]2C[C@](C)(N)[C@H](O)[C@H](C)O2)Oc2ccc(cc2Cl)[C@H]1O` [vancomycin hydrochloride, Vancomycin hydrochloride], the breakpoint sensitivity is listed as 5 mg/L, the minimum bactericidal concentrations is listed as 2.34 µg/mL and the minimum inhibitory concentration is listed as 1.18 µg/mL.
